Experimental data published in patent US20090234019A1, “T Type Calcium Channel Inhibitors” (priority 2004, published 2009).
pIC50: −log10 of the molar value.

What was measured:
PC3 cells [1] = test: Inhibition of calcium entry into PC3 cells; format: cell-based; details: Homo sapiens, PC-3, NE = no effect at highest concentration of drug tested, read-out: Ca2+: IC50 for inhibition of calcium entry, PC3
Method: (§1) Cells were incubated in growth media containing 1 uM of the acetoxy-methyl ester of the Ca2+-sensitive fluorescent dye indo-1 (indo-1/AM; Molecular Probes, Eugene, Oreg.) for 1 h at 37° C. Cells were washed three times in buffer A [10 mM HEPES (pH 7.4), 1 mM MgCl2, 3 mM KCl, 1 mM CaCl2, 140 mM NaCl, 0.1% glucose, and 1% fetal bovine serum] and suspended to a final concentration of 10^6 cells/ml. Before stimulation, cells were warmed to 37° C. Changes in [Ca2+]i were monitored in an SLM 8100C spectrofluorimeter (SLM/Aminco; Urbana, Ill.) using previously published methods (Densmore, J. J., Haverstick, D. M., Szabo, G., and Gray, L. S. 1996. A voltage operable current is involved in activation-induced Ca^2+ entry in human lymphocytes whereas ICRAC has no apparent role. Am. J. Physiol. 271:C1494-C1503; Haverstick, D. M., Densmore, J. J., and Gray, L. S. 1998. Calmodulin regulation of Ca^2+ entry in Jurkat T cells. Cell Calcium 23:361-368).

MDA-361 cells [2] = test: Inhibition of proliferation of MDA-361 cells; format: cell-based; details: MDA361, NE = no effect at highest concentration of drug tested, read-out: prolif: IC50 for inhibition of proliferation, MDA-361
Method: (§2) Cancer cell lines were obtained from the American Type Culture Collection (Manassas, Va.). Cell lines were maintained in RPMI1640 supplemented with glutamine and 5% fetal bovine serum containing SerXtend (Irvine Scientific) when appropriate insulin, as directed by the ATCC. The fetal bovine serum used for culture was heat-inactivated by maintaining the serum at 56° C. for 1 h. Cell lines used were a T celleukemia (Jurkat), prostate cancer (PC3, DU145, LNCAP), breast cancer (MDA468, MDA361, MCF7), pancreatic cancer (MIA PaCa2), liver cancer (Hep G2), lung cancer (A549, NCl H460), colon cancer (HT29, HCT 116), and ovarian cancer (SK-OV-3).
(§3) LNCaP cells at 2.5×10^4 cells/well or PC-3 cells at 5×10^4 cells/well, both in a final volume of […], were plated in triplicate in standard flat-bottomed 96-well tissue culture plates in the presence of drug or vehicle (DMSO). Unless otherwise indicated, cells were grown for 48 h at 37° C. in a CO2 incubator. Relative cell growth was determined with the CellTiter 96 aqueous cell proliferation assay (Promega, Madison, Wis.) as described by the manufacturer using an automated plate reader. Results were calculated in a blinded fashion and are the means of triplicate determinations.

PC3 cells [3] = test: Inhibition of proliferation of PC3 cells; format: cell-based, human
Method: as §2, §3

MDA-361 cells [4] = test: Inhibition of calcium entry into MDA-361 cells; format: cell-based; details: MDA361, NE = no effect at highest concentration of drug tested, read-out: Ca2+: IC50 for inhibition of calcium entry, MDA-361
Method: as §1

MDA-231 cells [5] = test: Inhibition of calcium entry into MDA-231 cells; format: cell-based; details: Homo sapiens, MDA-MB-231, NE = no effect at highest concentration of drug tested, read-out: Ca2+: IC50 for inhibition of calcium entry, MDA-231
Method: as §1

Jurkat cells [6] = test: Inhibition of calcium entry into Jurkat cells (indo-1 fluorescence); format: cell-based, human; details: Homo sapiens; Jurkat; NE = no effect at highest concentration of drug tested; read-out: Ca2+: IC50 for inhibition of calcium entry, Jurkat
Method: as §1, with “8100C” left out, “([…].,” for “(Densmore, J. J., Haverstick, D. M.,”, “271:[…].,” for “271:C1494-C1503; Haverstick, D. M., Densmore, J. J.,”

LNCaP cells [7] = test: Inhibition of proliferation of LNCaP cells; format: cell-based; details: Homo sapiens, NE = no effect at highest concentration of drug tested, read-out: prolif: IC50 for inhibition of proliferation, LNCaP
Method: as §2, §3

MDA-435 cells [8] = test: Inhibition of calcium entry into MDA-435 cells; format: cell-based; details: MDA435, NE = no effect at highest concentration of drug tested, read-out: Ca2+: IC50 for inhibition of calcium entry, MDA-435
Method: as §1

LNCaP cells [9] = test: Inhibition of calcium entry into LNCaP cells; format: cell-based; details: Homo sapiens, NE = no effect at highest concentration of drug tested, read-out: Ca2+: IC50 for inhibition of calcium entry, LNCaP
Method: as §1

MDA-231 cells [10] = test: Inhibition of proliferation of MDA-231 cells; format: cell-based; details: Homo sapiens, MDA-MB-231, NE = no effect at highest concentration of drug tested, read-out: prolif: IC50 for inhibition of proliferation, MDA-231
Jurkat cells [11] = test: Inhibition of proliferation of Jurkat cells; format: cell-based, human; details: Jurkat
Method: as §2, §3

MDA-435 cells [12] = test: Inhibition of proliferation of MDA-435 cells; format: cell-based; details: MDA435, NE = no effect at highest concentration of drug tested, read-out: prolif: IC50 for inhibition of proliferation, MDA-435
[13] = test system: HEK293 cells stably transfected the α1H gene; test: Proliferation of HEK293 cells stably transfected with α1H; format: cell-based; details: FIG. 5
[14] = molecular target: T1, α1H isoform of T type Ca2+ channels (Homo sapiens, UniProt O95180); test: Inhibition of Ca2+ current through transfected α1H channels; format: cell-based; details: FIG. 7
T1 construct: expressed in transfected cells; host or cells: HEK293 (stably transfected)
T1 sequence (O95180 whole entry, canonical isoform): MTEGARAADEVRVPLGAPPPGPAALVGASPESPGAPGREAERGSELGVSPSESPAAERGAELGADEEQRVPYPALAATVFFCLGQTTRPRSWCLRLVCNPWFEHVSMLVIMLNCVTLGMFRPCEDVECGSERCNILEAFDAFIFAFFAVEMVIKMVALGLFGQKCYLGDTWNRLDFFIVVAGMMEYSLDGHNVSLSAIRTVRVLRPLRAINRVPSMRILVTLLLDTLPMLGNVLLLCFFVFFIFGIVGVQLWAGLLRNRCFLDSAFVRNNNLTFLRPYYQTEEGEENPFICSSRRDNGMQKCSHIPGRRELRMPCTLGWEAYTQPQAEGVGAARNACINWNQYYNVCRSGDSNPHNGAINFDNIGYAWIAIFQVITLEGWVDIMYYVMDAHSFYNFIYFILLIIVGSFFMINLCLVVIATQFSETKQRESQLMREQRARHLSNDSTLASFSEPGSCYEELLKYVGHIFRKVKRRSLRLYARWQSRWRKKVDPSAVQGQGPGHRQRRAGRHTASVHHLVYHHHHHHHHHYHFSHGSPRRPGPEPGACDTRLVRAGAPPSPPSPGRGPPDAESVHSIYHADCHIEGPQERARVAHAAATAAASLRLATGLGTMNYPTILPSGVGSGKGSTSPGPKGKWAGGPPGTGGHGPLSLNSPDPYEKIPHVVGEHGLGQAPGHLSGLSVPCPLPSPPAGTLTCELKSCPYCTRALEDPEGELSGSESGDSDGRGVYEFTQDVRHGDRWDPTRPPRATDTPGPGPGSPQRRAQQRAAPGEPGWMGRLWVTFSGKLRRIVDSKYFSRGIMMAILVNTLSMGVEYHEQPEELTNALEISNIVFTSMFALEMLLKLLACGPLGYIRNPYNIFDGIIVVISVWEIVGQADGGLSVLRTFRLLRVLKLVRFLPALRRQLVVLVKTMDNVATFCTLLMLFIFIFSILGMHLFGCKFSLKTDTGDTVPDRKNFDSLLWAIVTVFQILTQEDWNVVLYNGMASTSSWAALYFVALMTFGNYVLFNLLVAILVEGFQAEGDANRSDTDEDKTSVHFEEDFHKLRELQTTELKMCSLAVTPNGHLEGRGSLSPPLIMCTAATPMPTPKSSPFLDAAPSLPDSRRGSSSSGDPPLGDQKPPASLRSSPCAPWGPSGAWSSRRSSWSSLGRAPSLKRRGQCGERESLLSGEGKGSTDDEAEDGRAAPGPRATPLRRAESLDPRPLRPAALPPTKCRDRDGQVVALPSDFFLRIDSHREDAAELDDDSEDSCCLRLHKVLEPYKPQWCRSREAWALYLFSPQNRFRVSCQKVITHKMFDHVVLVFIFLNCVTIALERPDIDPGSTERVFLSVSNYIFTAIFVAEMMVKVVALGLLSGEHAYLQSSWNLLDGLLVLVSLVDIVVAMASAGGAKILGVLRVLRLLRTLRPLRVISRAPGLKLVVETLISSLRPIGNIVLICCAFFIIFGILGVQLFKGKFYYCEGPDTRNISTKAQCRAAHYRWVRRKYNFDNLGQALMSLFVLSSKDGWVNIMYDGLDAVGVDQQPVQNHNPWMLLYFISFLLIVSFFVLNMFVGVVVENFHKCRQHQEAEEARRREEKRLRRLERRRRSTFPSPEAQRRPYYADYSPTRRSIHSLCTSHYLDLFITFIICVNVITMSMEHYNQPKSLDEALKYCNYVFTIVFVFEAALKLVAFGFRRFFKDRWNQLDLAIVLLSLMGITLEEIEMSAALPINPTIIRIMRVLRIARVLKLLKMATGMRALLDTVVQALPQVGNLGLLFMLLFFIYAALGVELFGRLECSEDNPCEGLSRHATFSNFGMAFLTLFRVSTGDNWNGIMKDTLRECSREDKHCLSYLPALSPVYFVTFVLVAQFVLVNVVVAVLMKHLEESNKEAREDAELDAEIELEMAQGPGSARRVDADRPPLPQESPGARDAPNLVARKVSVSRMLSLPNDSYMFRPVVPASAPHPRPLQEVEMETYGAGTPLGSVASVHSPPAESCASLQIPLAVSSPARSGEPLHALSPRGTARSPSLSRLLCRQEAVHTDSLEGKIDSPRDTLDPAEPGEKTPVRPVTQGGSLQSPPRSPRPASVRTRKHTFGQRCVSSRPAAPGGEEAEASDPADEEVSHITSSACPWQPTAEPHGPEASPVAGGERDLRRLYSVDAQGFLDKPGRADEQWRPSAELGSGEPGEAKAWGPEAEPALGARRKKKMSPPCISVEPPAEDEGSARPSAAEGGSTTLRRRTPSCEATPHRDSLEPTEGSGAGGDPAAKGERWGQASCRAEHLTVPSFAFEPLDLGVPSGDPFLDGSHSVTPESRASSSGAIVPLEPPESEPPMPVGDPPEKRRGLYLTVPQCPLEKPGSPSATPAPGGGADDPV

[15] = test system: human PC3 prostate cancer cells; details: xenografted PC3, Haverstick et al. 2000; cited from earlier work
[16] = Homo sapiens, PC-3, PC3, NE = no effect at highest concentration of drug tested, read-out: prolif: IC50 for inhibition of proliferation, PC3
[17] = Homo sapiens, NE = no effect at highest concentration of drug tested, read-out: prolif: IC50 for inhibition of proliferation, Jurkat
[18] = FIG. 6 panel B, read-out: IC50, proliferation of PC3 human prostate cancer cells

pIC50 (PC3 cells [1]) | pIC50 (PC3 cells [3]; [16]) | pIC50 (MDA-361 cells [4]) | pIC50 (MDA-231 cells [5]) | pIC50 (Jurkat cells [6]) | pIC50 (LNCaP cells [7]) | pIC50 (MDA-435 cells [8]) | pIC50 (LNCaP cells [9]) | pIC50 (Jurkat cells [11]; [17]) | pIC50 [14] | pIC50 (PC3 cells [3]; [18]) | pIC50 (Jurkat cells [11]; 48 hrs, in the absence of ionomycin, read-out: IC50 of TH-1177 for inhibition of proliferation) | pIC50 (Jurkat cells [11]; 48 hrs, in the presence of 30 uM ionomycin, read-out: IC50 of TH-1177 for inhibition of proliferation) | Compound | pIC50 (MDA-361 cells [2]) | pIC50 (MDA-231 cells [10]) | pIC50 (MDA-435 cells [12]) | proliferation of stably transfected HEK293 cells [13] | lifespan of nude mice inoculated with human PC3 prostate cancer cells [15]
– | 5.40 | 5.30 | 5.00 | 5.52 | 5.80 | 5.00 | 5.52 | 5.42 | – | – | – | – | COc1ccc(CNCCOC(c2ccccc2)c2ccc(Cl)cc2)cc1 (stereo not drawn) [Compound 3.9] | 5.40 | 4.93 | 4.92 | – | –
– | – | – | – | – | – | – | – | – | 6.10 | 4.85 | 4.75 | 5.34 | COc1ccc(CCN2CCC[C@H]2COC(c2ccccc2)c2ccc(Cl)cc2)cc1 (stereo partly drawn) [TH-1177] | – | – | – | inhibits proliferation | significantly extended the lifespan
4.52 | 4.96 | – | 4.52 | 4.52 | 5.15 | – | – | 4.52 | – | – | – | – | COc1ccc(CCCCNCCC(c2ccccc2)c2ccc(Cl)cc2)cc1 (stereo not drawn) [Compound 3.21] | – | 4.82 | 5.05 | – | –
– | – | – | – | – | – | – | – | – | 5.15 | 4.38 | – | – | COc1ccc(CCN2CCCC2COC(c2ccccc2)c2ccc(Cl)cc2)cc1 (stereo not drawn) [TH-1211] | – | – | – | – | –

Continued, compound first:

Compound | pIC50 (PC3 cells [1]) | pIC50 (PC3 cells [3]; [16]) | pIC50 (MDA-361 cells [4]) | pIC50 (MDA-231 cells [5]) | pIC50 (Jurkat cells [6]) | pIC50 (LNCaP cells [7]) | pIC50 (MDA-435 cells [8]) | pIC50 (LNCaP cells [9]) | pIC50 (Jurkat cells [11]; [17]) | pIC50 [14] | pIC50 (PC3 cells [3]; [18]) | pIC50 (Jurkat cells [11]; 48 hrs, in the absence of ionomycin, read-out: IC50 of TH-1177 for inhibition of proliferation) | pIC50 (Jurkat cells [11]; 48 hrs, in the presence of 30 uM ionomycin, read-out: IC50 of TH-1177 for inhibition of proliferation) | pIC50 (MDA-361 cells [2]) | pIC50 (MDA-231 cells [10]) | pIC50 (MDA-435 cells [12]) | proliferation of stably transfected HEK293 cells [13] | lifespan of nude mice inoculated with human PC3 prostate cancer cells [15]
COc1ccc(C(O)CCCCOC(c2ccccc2)c2ccc(Cl)cc2)cc1 (stereo not drawn) [Compound 3.5] | 4.52 | 4.48 | 4.60 | 5.00 | 5.15 | 4.60 | 5.00 | 5.00 | 4.30 | – | – | – | – | 4.35 | 4.30 | 4.19 | – | –
COc1ccc(CNCCCCCC(c2ccccc2)c2ccc(Cl)cc2)cc1 (stereo not drawn) [Compound 3.1] | – | 4.96 | 5.00 | 5.00 | 5.00 | 5.46 | 4.60 | 5.00 | 5.40 | – | – | – | – | 5.10 | 5.10 | 4.92 | – | –
COc1ccc(CNCCCCOC(c2ccccc2)c2ccc(Cl)cc2)cc1 (stereo not drawn) [Compound 3.2] | 5.00 | 5.05 | 5.22 | 5.10 | 5.52 | 5.70 | 5.00 | 5.30 | 5.52 | – | – | – | – | 5.40 | 5.00 | 4.98 | – | –
COc1ccc(CCCNCCOC(c2ccccc2)c2ccc(Cl)cc2)cc1 (stereo not drawn) [Compound 3.4] | ~4.82 | 5.00 | 5.00 | ~4.70 | 5.52 | 5.26 | 4.82 | 4.82 | 5.43 | – | – | – | – | 5.40 | 5.40 | 5.00 | – | –
COc1ccc(C(=O)CCCCOC(c2ccccc2)c2ccc(Cl)cc2)cc1 (stereo not drawn) [Compound 3.6] | < 4.00 | < 4.00 | < 4.00 | < 4.00 | < 4.00 | ~4.00 | < 4.00 | < 4.00 | < 4.00 | – | – | – | – | < 4.00 | < 4.00 | < 4.00 | – | –
COc1ccc(CCNCCOC(c2ccccc2)c2ccc(Cl)cc2)cc1 (stereo not drawn) [Compound 3.8] | 5.00 | 4.94 | 4.70 | 5.00 | 5.00 | 5.46 | 5.00 | 5.00 | 5.12 | – | – | – | – | 5.12 | 4.97 | 4.80 | – | –
COCC(=O)O[C@]1(CCN(C)CCCc2nc3ccccc3[nH]2)CCc2cc(F)ccc2[C@@H]1C(C)C [mibefradil, reference compound] | – | – | – | – | – | – | – | – | – | – | – | – | – | – | – | – | inhibits proliferation | –
